Experimental data from article PMC8537277 (Pharmaceuticals, 2021).
Where “and” joins values, the source holds several entries; their conditions need not be identical. Identical values can stand only once. Like-named read-outs stand apart in the source and are kept apart here. Where a SMILES comes first, the peptide text is derived from it.

Columns and labels:
[1] = test system: A/Roma-ISS/02/08 H1N1; conditions: MDCK cells; ref Scala et al. (2017) [14]; cited from earlier work
[2] = Cytotoxicity assay; type: cell-based, canine; conditions: dog, MDCK cells
Description: This procedure was performed as reported elsewhere. Briefly, two-fold serial dilutions of each peptide in culture medium were incubated at 37 °C with confluent MDCK cells grown in 96-well tissue culture microplates (Nalge Nunc Europe Ltd., Neerijse, Belgium). After 24 h, the following parameters were evaluated: cell morphology, which was examined by light microscopy; cell viability, which was determined by neutral red staining as already described by us; and cell proliferation, which was evaluated quantitatively by microscopic counts after dispersion into individual cells with trypsin.

[3] = test system: A/Parma/05/06 H3N2; conditions: MDCK cells; ref Scala et al. (2017) [14]; cited from earlier work
[4] = test system: A/Parma/05/06 H3N2; parameters: method as in Scala et al. (2017) [14]; conditions: reference peptides; ref Scala et al. (2017) [14]; read-out: HI Titer (IC50) A/Parma/05/06 H3N2; cited from earlier work
[5] = test system: A/Roma-ISS/02/08 H1N1 oseltamivir-sensitive virus; conditions: reference peptides; ref Scala et al. (2017) [14]; read-out: HI Titer (IC50) A/Roma-ISS/02/08 H1N1; cited from earlier work
[6] = test system: A/Parma/24/09 H1N1; conditions: MDCK cells; ref Scala et al. (2017) [14]; cited from earlier work
[7] = target: HA (H1N1 hemagglutinin, Cat No.: Z03181, GenScript); conditions: read-out: MST KD
[8] = test system: A/Parma/05/06 H3N2; conditions: A/Parma/05/06, 1 h
[9] = target: HA (H1N1 hemagglutinin, Cat No: Z03181, GenScript); conditions: read-out: SPR KD
[10] = test system: A/Roma-ISS/02/08 H1N1 oseltamivir-sensitive virus; conditions: A/Roma-ISS/02/08 oseltamivir-sensitive virus, 1 h

Compound | Kd [7] | Kd [9] [nM] | further results
CC(=O)N[C@@H](CO)C(=O)N[C@@H](CCCCN)C(=O)N[C@@H](Cc1c[nH]cn1)C(=O)N[C@@H](CO)C(N)=O [Peptide 1, Ac-SKHS-NH2] (Ac-SKHS-NH2) | – | – | EC50 [1]: 0.003 nM; CC50 at 24 h [2]: > 25000 nM; EC50 [3]: 0.005 nM; IC50 [4]: 12 nM; IC50 [5]: 0.1 nM
CC(=O)N[C@@H](CO)C(=O)N[C@@H](CC(C)C)C(=O)N[C@@H](CC(=O)O)C(=O)N[C@@H](CS)C(N)=O [Peptide 2, Ac-SLDC-NH2] (Ac-SLDC-NH2) | – | – | EC50 [6]: 0.0046 nM; EC50 [3]: 0.0043 nM; IC50 [4]: 1.5 nM
CC(=O)N[C@@H](C)C(=O)N[C@@H](CCCCN)C(=O)N[C@@H](Cc1c[nH]cn1)C(=O)N[C@@H](CO)C(N)=O [Peptide 3] (Ac-AKHS-NH2) | 3120 ± 110 nM | 2700 ± 40 | IC50 [8]: 12 nM; IC50 [10]: 0.6 nM
CC(=O)N[C@@H](CO)C(=O)N[C@@H](C)C(=O)N[C@@H](Cc1c[nH]cn1)C(=O)N[C@@H](CO)C(N)=O [Peptide 4, Ac-SAHS-NH2] (Ac-SAHS-NH2) | 8.22 nM and 8.2 nM | 3.57 ± 0.12 | CC50 at 24 h [2]: > 25000 nM
CC(=O)N[C@@H](CO)C(=O)N[C@@H](CCCCN)C(=O)N[C@@H](C)C(=O)N[C@@H](CO)C(N)=O [Peptide 5] (Ac-SKAS-NH2) | 7010 ± 90 nM | 1030 ± 10 | –
CC(=O)N[C@@H](CO)C(=O)N[C@@H](CCCCN)C(=O)N[C@@H](Cc1c[nH]cn1)C(=O)N[C@@H](C)C(N)=O [Peptide 6] (Ac-SKHA-NH2) | 11400 ± 170 nM | 6750 ± 810 | –
CC(=O)N[C@@H](C)C(=O)N[C@@H](CC(C)C)C(=O)N[C@@H](CC(=O)O)C(=O)N[C@@H](CS)C(N)=O [Peptide 7] (Ac-ALDC-NH2) | 21200 ± 410 nM | 27.7 ± 1.7 | –
CC(=O)N[C@@H](CO)C(=O)N[C@@H](C)C(=O)N[C@@H](CC(=O)O)C(=O)N[C@@H](CS)C(N)=O [Peptide 8] (Ac-SADC-NH2) | 6380 ± 210 nM | 2190 ± 510 | –
CC(=O)N[C@@H](CO)C(=O)N[C@@H](CC(C)C)C(=O)N[C@@H](C)C(=O)N[C@@H](CS)C(N)=O [Peptide 9] (Ac-SLAC-NH2) | 5.8 ± 0.3 nM | 2570 ± 340 | –
CC(=O)N[C@@H](CO)C(=O)N[C@@H](CC(C)C)C(=O)N[C@@H](CC(=O)O)C(=O)N[C@@H](C)C(N)=O [Peptide 10] (Ac-SLDA-NH2) | 2690 ± 90 nM | 343 ± 19 | IC50 [8]: 0.0021 nM
